In patent US9408387B2, “Safening 6-amino-2-(substituted phenyl)-5-substituted-4-pyrimidinecarboxylate herbicide injury on cereal crops” (Dow AgroSciences LLC, priority 2009, dated 2016):

Assays:
Type in all cases: in vivo
[1] = tested on: durum wheat (Triticum durum L; TRZDU); assay: Postemergence herbicidal safening in cereal crops, greenhouse, visual injury: durum wheat; settings: herbicide alone 8.75 g/ha; 20-22 d
Description: (§1) Evaluation of Postemergence Herbicidal Safening in Cereal Crops
(§2) Seeds of the desired test plant species were planted in Sun Gro MetroMix® 306 planting mixture, which typically has a pH of 6.0 to 6.8 and an organic matter content of about 30 percent, in plastic pots with a surface area of 103.2 square centimeters (cm^2). When required to ensure good germination and healthy plants, a fungicide treatment and/or other chemical or physical treatment was applied. The plants were grown for 7-36 days (d) in a greenhouse with an approximate 14-hour (h) photoperiod which was maintained at about 18° C. during the day and 17° C. during the night. Nutrients and water were added on a regular basis and supplemental lighting was provided with overhead metal halide 1000-Watt lamps as necessary. The plants were employed for testing when they reached the second or third true leaf stage.
(§3) Treatments consisted of the acids or esters of compounds 1-10 and cloquintocet-mexyl (CQC-M), fenchlorazole-ethyl, mefenpyr-diethyl alone and in combination. Weighed amounts of acid or methyl esters of the compounds of formula (I) were dissolved in a volume of 97:3 v/v acetone/dimethylsulfoxide (DMSO) to obtain concentrated solutions. […] The concentrated solutions of the test compound were diluted with the addition of an aqueous mixture containing acetone, water, isopropyl alcohol, DMSO, Agri-Dex crop oil concentrate, and Triton® X-77 surfactant in a 64.7:26.0:6.7:2.0:0.7:0.01 v/v ratio. Test compounds were diluted to the appropriate application rate with a dilution solution which was prepared by mixing the appropriate volume of 97:3 v/v acetone/DMSO and the appropriate volume of an aqueous mixture containing acetone, water, isopropyl alcohol, DMSO, Agri-Dex crop oil concentrate, and Triton® X-77 surfactant in a 64.7:26.0:6.7:2.0:0.7:0.01 v/v ratio. Compound requirements are based upon a 12 mL application volume at a rate of 187 liters per hectare (L/ha). The concentrated solutions of the safener were prepared following the same procedure. Weighed amounts of safener were dissolved in a volume of 97:3 v/v acetone/DMSO to obtain concentrated safener solutions.
(§4) Spray solutions of the herbicide safener and test compound mixtures were prepared by adding the concentrated solutions to the appropriate amount of dilution solution to form 12 mL spray solution with active ingredients in combinations.
(§5) Formulated compounds were applied to the plant material with an overhead Mandel track sprayer equipped with 8002E nozzles calibrated to deliver 187 L/ha over an application area of 0.503 square meters (m^2) at a spray height of 18 inches (43 centimeters (cm)) above average plant canopy. Control plants were sprayed in the same manner with the solvent blank.
(§6) The treated plants and control plants were placed in a greenhouse as described above and watered by sub-irrigation to prevent wash-off of the test compounds. After 20-22 d, the condition of the test plants as compared with that of the control plants was determined visually and scored on a scale of 0 to 100 percent where 0 corresponds to no injury and 100 corresponds to complete kill.
(§7) Colby's equation was used to determine the herbicidal effects expected from the mixtures (Colby, S. R. Calculation of the synergistic and antagonistic response of herbicide combinations. Weeds 1967, 15, 20-22.).
(§8) The following equation was used to calculate the expected activity of mixtures containing two active ingredients, A and B: Expected=A+B−(A×B/100)
(§9) A=observed efficacy of active ingredient A at the same concentration as used in the mixture.
(§10) B=observed efficacy of active ingredient B at the same concentration as used in the mixture.

[2] = tested on: winter wheat (Triticum aestivum L; TRZAW); assay: Postemergence herbicidal safening in cereal crops, greenhouse, visual injury: winter wheat; settings: herbicide alone 8.75 g/ha; 20-22 d
Description: as §1, §2, §3, §4, §5, §6, §7, §8, §9, §10

[3] = tested on: winter barley (Hordeum vulgare L; HORVW); assay: Postemergence herbicidal safening in cereal crops, greenhouse, visual injury: winter barley; settings: herbicide alone 8.75 g/ha; 20-22 d
Description: as §1, §2, §3, §4, §5, §6, §7, §8, §9, §10

[4] = tested on: purple deadnettle (Lamium purpureum L; LAMPU); assay: Postemergence herbicidal activity, greenhouse, visual injury: purple deadnettle; settings: Lamium purpureum, post-emergence, 480 h, 20-22 d, read-out: LAMPU Ob (visual injury); for pest or weed control at 35 g/ha: herbicide alone 35 g ae/ha; for pest or weed control at 70 g/ha: herbicide alone 70 g/ha; for pest or weed control at 140 g/ha: herbicide alone 140 g/ha
Description: as §1, §2, §3, §4, §5, §6, §7, §8, §9, §10

[5] = tested on: spring barley (Hordeum vulgare L; HORVS); assay: Postemergence herbicidal safening in cereal crops, greenhouse, visual injury: spring barley; settings: Hordeum vulgare, post-emergence, 480 h, 20-22 d, read-out: HORVS Ob (visual injury); for pest or weed control at 8.75 g/ha: herbicide alone 8.75 g/ha; for pest or weed control at 35 g/ha: herbicide alone 35 g ae/ha; for pest or weed control at 70 g/ha: herbicide alone 70 g/ha; for pest or weed control at 140 g/ha: herbicide alone 140 g/ha
Description: as §1, §2, §3, §4, §5, §6, §7, §8, §9, §10

[6] = tested on: bird's-eye speedwell (Veronica persica L; VERPE); assay: Postemergence herbicidal activity, greenhouse, visual injury: bird's-eye speedwell; settings: herbicide alone 8.75 g/ha; 20-22 d
Description: as §1, §2, §3, §4, §5, §6, §7, §8, §9, §10

[7] = tested on: kochia (Kochia scoparia L; KCHSC); assay: Postemergence herbicidal activity, greenhouse, visual injury: kochia; settings: 20-22 d
Description: as §1, §2, §3, §4, §5, §6, §7, §8, §9, §10

[8] = tested on: spring wheat (Triticum aestivum L; TRZAS); assay: Postemergence herbicidal safening in cereal crops, greenhouse, visual injury: spring wheat; settings: Triticum aestivum, post-emergence, 480 h, 20-22 d, read-out: TRZAS Ob (visual injury); for pest or weed control at 8.75 g/ha: herbicide alone 8.75 g/ha; for pest or weed control at 35 g/ha: herbicide alone 35 g ae/ha; for pest or weed control at 70 g/ha: herbicide alone 70 g/ha; for pest or weed control at 140 g/ha: herbicide alone 140 g/ha
Description: as §1, §2, §3, §4, §5, §6, §7, §8, §9, §10

[9] = tested on: corn poppy (Papaver rhoeas L; PAPRH); assay: Postemergence herbicidal activity, greenhouse, visual injury: corn poppy; settings: 20-22 d
Description: as §1, §2, §3, §4, §5, §6, §7, §8, §9, §10

[10] = tested on: CIRAR; assay: Postemergence herbicidal activity, greenhouse, visual injury: CIRAR; settings: 20-22 d
Description: as §1, §2, §3, §4, §5, §6, §7, §8, §9, §10

[11] = tested on: SASKR; assay: Postemergence herbicidal activity, greenhouse, visual injury: SASKR; settings: 20-22 d
Description: as §1, §2, §3, §4, §5, §6, §7, §8, §9, §10

[12] = tested on: MATCH; assay: Postemergence herbicidal activity, greenhouse, visual injury: MATCH; settings: 20-22 d
Description: as §1, §2, §3, §4, §5, §6, §7, §8, §9, §10

| Structure (SMILES) | TRZDU Ob (visual injury) [1] [%] | TRZAW Ob (visual injury) [2] [%] | HORVW Ob (visual injury) [3] [%] | pest or weed control at 35 g/ha [4] [%] | pest or weed control at 8.75 g/ha [5] [%] | pest or weed control at 35 g/ha [5] [%] | pest or weed control at 8.75 g/ha [8] [%] | pest or weed control at 35 g/ha [8] [%] | pest or weed control at 70 g/ha [4] [%] | pest or weed control at 140 g/ha [4] [%] | pest or weed control at 70 g/ha [5] [%] | pest or weed control at 140 g/ha [5] [%] | pest or weed control at 70 g/ha [8] [%] | pest or weed control at 140 g/ha [8] [%] | CIRAR Ob (visual injury) ([10]; herbicide alone 70 g/ha) [%] | CIRAR Ob (visual injury) ([10]; herbicide alone 140 g/ha) [%] | PAPRH Ob (visual injury) ([9]; herbicide alone 70 g/ha) [%] | PAPRH Ob (visual injury) ([9]; herbicide alone 140 g/ha) [%] | KCHSC Ob (visual injury) ([7]; herbicide alone 70 g/ha) [%] | KCHSC Ob (visual injury) ([7]; herbicide alone 140 g/ha) [%] | also measured |
| --- | --- | --- | --- | --- | --- | --- | --- | --- | --- | --- | --- | --- | --- | --- | --- | --- | --- | --- | --- | --- | --- |
| C=Cc1c(N)nc(-c2ccc(Cl)c(OC)c2F)nc1C(=O)O [Compound 2, 6-amino-2-(4-chloro-2-fluoro-3-methoxyphenyl)-5-vinylpyrimidine-4-carboxylic acid] | 30 | 43 | 18 | 77 | 24 | 68 | 41 | 80 |  |  |  |  |  |  |  |  |  |  |  |  | VERPE Ob (visual injury) [6]: 70%; KCHSC Ob (visual injury) ([7]; herbicide alone 8.75 g/ha): 40%; PAPRH Ob (visual injury) ([9]; herbicide alone 8.75 g/ha): 80% |
| COC(=O)c1nc(-c2ccc(Cl)c(OC)c2F)nc(N)c1OC [Compound 4, 6-amino-2-(4-chloro-2-fluoro-3-methoxyphenyl)-5-methoxypyrimidine-4-carboxylic acid methyl ester] | 18 | 22 | 7 | 100 | 25 | 75 | 33 | 80 |  |  |  |  |  |  |  |  |  |  |  |  |  |
| C=Cc1c(N)nc(-c2ccc(Cl)c(OC)c2F)nc1C(=O)OC [Compound 5, 6-amino-2-(4-chloro-2-fluoro-3-methoxyphenyl)-5-vinylpyrimidine-4-carboxylic acid methyl ester] |  |  |  | 75 |  | 10 |  | 25 | 95 | 95 | 8 | 0 | 18 | 40 | 84 | 85 | 89 | 90 |  |  |  |
| C=Cc1c(N)nc(-c2ccc(Cl)c(N(C)C)c2F)nc1C(=O)O [Compound 7, 6-amino-2-(4-chloro-3-dimethylamino-2-fluorophenyl)-5-vinylpyrimidine-4-carboxylic acid] |  |  |  | 52 |  | 70 |  | 75 |  |  | 30 | 45 | 60 | 70 | 80 | 85 |  |  | 65 | 75 | SASKR Ob (visual injury) ([11]; herbicide alone 70 g/ha): 75%; SASKR Ob (visual injury) ([11]; herbicide alone 140 g/ha): 80% |
| COc1c(N)nc(-c2ccc(Cl)c(OC)c2F)nc1C(=O)O [Compound 8, 6-amino-2-(4-chloro-2-fluoro-3-methoxyphenyl)-5-methoxypyrimidine-4-carboxylic acid] |  |  |  | 100 |  | 75 |  | 83 | 100 | 100 | 50 | 85 | 90 | 95 |  |  | 100 | 100 | 90 | 100 |  |
| COc1c(N)nc(-c2ccc(Cl)c(F)c2)nc1C(=O)O [Compound 9, 6-amino-2-(4-chloro-3-fluorophenyl)-5-methoxypyrimidine-4-carboxylic acid] |  |  |  |  |  |  |  |  | 95 | 100 | 50 | 70 | 60 | 70 |  |  |  |  | 100 | 100 | MATCH Ob (visual injury) ([12]; herbicide alone 70 g/ha): 93%; MATCH Ob (visual injury) ([12]; herbicide alone 140 g/ha): 97% |
